Test [1] has as its system adherence of JY-8 cells (expressing LFA-1) to immobilized ICAM-1. The test can be described thus: ICAM-1/JY-8 Cell Adhesion Assay. It counts as cell-based, human. On the procedure: ICAM-1/JT-8 Cell Adhesion Assay
For measurment measurement of inhibotory inhibitory activity in the cell-based adhesion assay, 96-well microtiter plates are were coated with 70 μL of recombinat recombinant ICAM-1/Ig (ICOS Corporation) at a concentration of 5 μg/mL in D-PBS w/o without Ca^++ or Mg++ or Mg^++ overnight at 4° C. The wells are were then washed twice with D-PBS and blocked by addition of 200 μL of D-PBS, 5% fish skin gelatin by incubation for 1 hour at room temperature. […] The percent inhibition of a candidate compound at a given concentration is was calculated using the following equation: [formula] and these concentration/inhibition data are were used to generate does response curves, from which IC50 values are were derived.

Test [2] deals with T1, interaction between the integrin LFA-1 and its adhesion partner ICAM-1 (Homo sapiens, UniProt P20701).
T1 construct: Recombinant LFA-1 (100 μL of 0.7 μg/ml mL, ICOS Corporation) in D-PBS; purchased ICOS Corporation
The test can be described thus: ICAM-1/LFA-1 Biochemical Interaction Assay. The test is classed as binding. Conditions: 4 μM compound; recombinant LFA-1, biotinylated ICAM-1/Ig. On the procedure: Compounds that antagonize the interaction between ICAM-1 and LFA-1 can be identified, and their activities quantitated, using both biochemical and cell-based adhesion assays. A primary biochemical assay measures the ability of the compound in question to block the interaction between the integrin LFA-1 and its adhesion partner ICAM-1, as described below:
ICAM-1/LFA-1 Biochemical Interaction Assay
In the biochemical assay, 100 μL of anti-LFA-1 antibody (ICOS Corporation) at a concentration of 5 μg/ml mL in Dulbecco's phosphate-buffered saaline (D-PBS) is used to coat wells of a 96-well microtiter plate overnight at 4° C. The wells are were then washed twice with wash buffer (D-PBS w/o Ca^++ or Mg^++, 0.05% Tween 20) and blocked by addition of 200 μL of D-PBS, 5% fish skin gelatin. Recombinant LFA-1 (100 μL of 0.7 μg/ml mL, ICOS Corporation) in D-PBS is was then added to each well. Incubation continues continued for 1 hour at room temperature and the wells are were washed twice with wash buffer. Serial dilutions of compounds being assayed as ICAM-1/LFA-1 antagonists, were prepared as 10 mM stock solutions in dimethyl sulfoxide (DMSO), are were diluted in D-PBS, 2 mM MgCl2, 1% fish skin gelatin and 50 μL of each dilution was added to duplicate wells. This is was followed by the addition of 50 μL of 0.8 μg/ml mL biotinylated recombinant ICAM-1/Ig (ICOS Corporation) to the wells and the plates are were incubated at room temperature for 1 hour. The wells are were then washed twice with wash buffer and 100 μL of Europium-labeled Streptavidin (Wallac Oy) diluted 1:100 in Delfia assay buffer (Wallac Oy), are was then added to the wells. Incubation proceeds proceeded for 1 hour at room temperature. The wells are were washed eight times with wash buffer and 100 μL of enhancement solution (Wallac Oy, cat. No. 1244-105) are was added to each well. Incubation proceeds proceeded for 5 minutes with constant mixing. Time-resolved fluorimetry measurements are were made using the a Victor 1420 Multilabel Counter (Wallac Oy) and the percent inhibition of each candidate compound is was calculated using the following equation: [formula] where “background” refers to wells that are were not coated with anti-LFA-1 antibody.

[3] abbreviates: Homo sapiens, JY-8, JY-8 cells on immobilized ICAM-1/Ig.
[4] abbreviates: JY-8 cells on immobilized ICAM-1/Ig.

T1 sequence (P20701 26-1170): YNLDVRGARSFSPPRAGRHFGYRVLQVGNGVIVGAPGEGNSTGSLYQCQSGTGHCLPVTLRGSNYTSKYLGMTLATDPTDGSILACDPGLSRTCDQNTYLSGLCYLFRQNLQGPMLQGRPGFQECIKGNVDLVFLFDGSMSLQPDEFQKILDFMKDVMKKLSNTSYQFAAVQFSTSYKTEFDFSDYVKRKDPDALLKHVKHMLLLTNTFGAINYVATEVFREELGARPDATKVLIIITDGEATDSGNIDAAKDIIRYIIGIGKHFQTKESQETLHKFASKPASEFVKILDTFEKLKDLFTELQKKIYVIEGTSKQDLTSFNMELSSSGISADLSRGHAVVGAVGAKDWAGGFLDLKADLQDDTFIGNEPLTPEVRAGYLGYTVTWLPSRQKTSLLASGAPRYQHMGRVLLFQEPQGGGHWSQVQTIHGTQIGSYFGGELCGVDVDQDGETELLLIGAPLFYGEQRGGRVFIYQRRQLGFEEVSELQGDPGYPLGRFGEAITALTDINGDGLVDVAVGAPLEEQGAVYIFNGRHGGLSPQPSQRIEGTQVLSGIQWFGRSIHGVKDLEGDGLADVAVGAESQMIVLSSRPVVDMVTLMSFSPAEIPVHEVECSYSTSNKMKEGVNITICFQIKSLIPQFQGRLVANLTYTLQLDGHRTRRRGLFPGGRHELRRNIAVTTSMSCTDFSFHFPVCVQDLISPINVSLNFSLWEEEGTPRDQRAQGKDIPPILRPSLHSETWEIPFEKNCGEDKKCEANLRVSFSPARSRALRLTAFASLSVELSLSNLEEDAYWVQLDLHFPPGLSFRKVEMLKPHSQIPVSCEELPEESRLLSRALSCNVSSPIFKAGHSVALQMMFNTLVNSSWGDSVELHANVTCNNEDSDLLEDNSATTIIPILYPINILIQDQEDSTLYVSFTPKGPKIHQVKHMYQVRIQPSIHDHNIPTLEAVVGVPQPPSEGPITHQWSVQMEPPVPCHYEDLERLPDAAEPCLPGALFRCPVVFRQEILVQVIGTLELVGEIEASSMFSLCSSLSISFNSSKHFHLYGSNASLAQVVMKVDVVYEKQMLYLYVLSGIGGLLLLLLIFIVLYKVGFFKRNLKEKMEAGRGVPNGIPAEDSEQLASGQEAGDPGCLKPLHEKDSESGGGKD
T1 sequence (P05107 23-769 partner): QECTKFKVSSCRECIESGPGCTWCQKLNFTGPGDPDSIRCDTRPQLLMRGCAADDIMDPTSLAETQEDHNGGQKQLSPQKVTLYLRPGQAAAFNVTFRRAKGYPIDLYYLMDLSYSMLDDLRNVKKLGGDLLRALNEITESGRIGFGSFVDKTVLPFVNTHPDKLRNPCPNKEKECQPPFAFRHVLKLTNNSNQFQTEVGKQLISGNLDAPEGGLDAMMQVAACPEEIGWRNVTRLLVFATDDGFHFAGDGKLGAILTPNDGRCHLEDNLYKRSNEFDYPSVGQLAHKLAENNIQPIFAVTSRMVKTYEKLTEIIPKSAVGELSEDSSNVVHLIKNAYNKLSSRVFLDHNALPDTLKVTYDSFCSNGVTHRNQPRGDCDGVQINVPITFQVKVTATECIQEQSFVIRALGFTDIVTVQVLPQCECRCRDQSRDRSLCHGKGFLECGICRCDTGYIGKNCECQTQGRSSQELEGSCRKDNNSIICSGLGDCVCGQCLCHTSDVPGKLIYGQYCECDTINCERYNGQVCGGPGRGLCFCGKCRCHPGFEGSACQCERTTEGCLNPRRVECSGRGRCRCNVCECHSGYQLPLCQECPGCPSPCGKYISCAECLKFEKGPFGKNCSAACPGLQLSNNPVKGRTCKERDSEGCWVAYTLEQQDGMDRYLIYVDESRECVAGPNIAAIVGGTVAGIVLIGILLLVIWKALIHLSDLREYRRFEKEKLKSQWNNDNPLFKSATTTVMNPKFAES

Turning to `O=C(/C=C/c1ccccc1Sc1ccc(Cl)cc1Cl)NCCCCCCO` [Example 1, (2,4-Dichlorophenyl)[2-(E-((6-hydroxyhexylamino)carbonyl)ethenyl)phenyl]sulfide], the IC50 (in general, the concentration needed to halve the response being measured) in test [1] (setting [3]) was determined as 2100 nM. Also, the inhibition (in general, the drop in the measured response relative to a control, in per cent) at 4 µM in test [2] stood at 75%.
`O=C(/C=C/c1ccccc1Sc1ccc(Cl)cc1Cl)NCCCn1ccnc1` [Example 2, (2,4-Dichlorophenyl)[2-(E-((3-(1-imidazolyl)propylamino)carbonyl)ethenyl)phenyl]sulfide] yielded a half-inhibitory concentration (IC50) in test [1] (setting [3]) of 13000 nM.
Consider `O=C(/C=C/c1ccc(Sc2ccc(Cl)cc2Cl)c(Cl)c1)NCCO` [Example 3, (2,4-Dichlorophenyl)[2-chloro-4-(E-((2-hydroxyethylamino)carbonyl)ethenyl)phenyl]sulfide], for which the IC50 in test [1] (setting [3]) is 2500 nM. The inhibition at 4 µM in test [2] came to 75%.
Take `O=C(/C=C/c1ccc(Sc2ccc(Cl)cc2Cl)c(Cl)c1)NCCCCCCO` [Example 4, (2,4-Dichlorophenyl)[2-chloro-4-(E-((6-hydroxyhexylamino)carbonyl)ethenyl)phenyl]sulfide]: in test [1] (setting [3]), the IC50 was found to be 680 nM.
Take `O=C(/C=C/c1ccc(Sc2ccc(Cl)cc2Cl)c(Cl)c1)N(CCO)CCO` [Example 5, (2,4-Dichlorophenyl)[2-chloro-4-(E-((bis-(2-hydroxyethyl)amino)carbonyl)ethenyl)phenyl]sulfide]: the IC50 in test [1] (setting [3]) was 2900 nM. For the same compound, in test [2], the inhibition at 4 µM is 73%.
In the same order, the values of `O=C(/C=C/c1ccc(Sc2ccc(Cl)cc2Cl)c(Cl)c1)NCCCN1CCCC1=O` [Example 6, (2,4-Dichlorophenyl)[2-chloro-4-(E-((3-(2-oxopyrrolidin-1-yl)propylamino)carbonyl)ethenyl)phenyl]sulfide] are 660 nM and 85%.
In test [1] (setting [4]), `O=C(/C=C/c1ccc(Sc2ccc(Cl)cc2Cl)c(Cl)c1)N1CCOCC1` [Example 7, (2,4-Dichlorophenyl)[2-chloro-4-(E-((1-morpholinyl)carbonyl)ethenyl)phenyl]sulfide] came in with an IC50 of 1200 nM. The “% inhibition @ 4 μM” value in test [2] was 87%.
In the case of `CN1CCN(C(=O)/C=C/c2ccc(Sc3ccc(Cl)cc3Cl)c(Cl)c2)CC1` [Example 8, (2,4-Dichlorophenyl)[2-chloro-4-(E-((4-methylpiperazin-1-yl)carbonyl)ethenyl)phenyl]sulfide], it took 2900 nM to reach half-maximal inhibition in test [1] (setting [3]) (IC50). In test [2], the inhibition at 4 µM was determined as 74%.
`O=C(/C=C/c1ccc(Sc2ccc(Cl)cc2Cl)c(Cl)c1)N1CCN(c2ccccn2)CC1` [Example 10, (2,4-Dichlorophenyl)[2-chloro-4-(E-((4-(2-pyridyl)piperazin-1-yl)carbonyl)ethenyl)phenyl]sulfide] came in with an IC50 in test [1] (setting [3]) of 1500 nM.
With `O=C(/C=C/c1ccc(Sc2ccccc2CO)c(Cl)c1)N1CCOCC1` [Example 11, (2-(Hydroxymethyl)phenyl)[2-chloro-4-(E-((1-morpholinyl)carbonyl)ethenyl)phenyl]sulfide], it took 260 nM to reach half-maximal inhibition in test [1] (setting [4]) (IC50). In addition, in test [2], the “% inhibition @ 4 μM” value turned out to be 87%.
In test [1] (setting [4]), `O=C(/C=C/c1ccc(Sc2ccc(Cl)cc2Cl)c(Cl)c1)N1CCN(CCO)CC1` [Example 13] yielded a half-maximal inhibitory concentration (IC50) of 1100 nM. Also, the “% inhibition @ 4 μM” value in test [2] stood at 79%.
In the same order, the values of `O=C(/C=C/c1ccc(Sc2ccc(Cl)cc2Cl)c(Cl)c1)N1CCN(CCOCCO)CC1` [Example 14] are 790 nM and 82%.
Take `O=C(/C=C/c1ccc(Sc2ccccc2Br)c(Cl)c1)N1CCCCC1` [Example 19]: in test [1] (setting [4]), the concentration for half-maximal inhibition (IC50) was 450 nM. In addition, the “% inhibition @ 4 μM” value in test [2] came out at 93%.
Take `O=C(O)C1CCCN(C(=O)/C=C/c2ccc(Sc3ccc(Cl)cc3Cl)c(Cl)c2)C1` (stereo not shown) [Example 20, (2,4-Dichlorophenyl)[2-chloro-4-(E-((3-carboxypiperidin-1-yl)carbonyl)ethenyl)phenyl]sulfide]: in test [1] (setting [3]), 3300 nM corresponded to half-maximal inhibition (IC50). Also, the inhibition at 4 µM in test [2] was 82%.
In the same order, the values of `O=C(O)C1CCN(C(=O)/C=C/c2ccc(Sc3ccc(Cl)cc3Cl)c(Cl)c2)CC1` [Example 21, (2,4-Dichlorophenyl)[2-chloro-4-(E-((4-carboxypiperidin-1-yl)carbonyl)ethenyl)phenyl]sulfide] are 520 nM and 80%.
For the compound `CC(=O)N1CCCN(C(=O)/C=C/c2ccc(Sc3ccccc3Br)c(Cl)c2)CC1` [Example 22, (2-Bromophenyl)[2-chloro-4-(E-((4-acetylhomopiperazin-1-yl)carbonyl)ethenyl)phenyl]sulfide], in test [1] (setting [3]), the half-maximal inhibitory concentration (IC50) amounted to 200 nM. In addition, the inhibition at 4 µM in test [2] was determined as 90%.
`O=C(/C=C/c1ccc(Sc2ccccc2Br)c(Cl)c1)N1CCC(n2c(=O)[nH]c3ccccc32)CC1` [Example 24]: it took 8000 nM to reach half-maximal inhibition in test [1] (setting [4]) (IC50). Moreover, the “% inhibition @ 4 μM” value in test [2] stood at 80%.
Consider `O=C(/C=C/c1ccc(Sc2ccccc2Br)c(Cl)c1)N1CCc2ccccc2C1` [Example 25, (2-Bromophenyl)[2-chloro-4-(E-((2-tetrahydroisoquinolinyl)carbonyl)ethenyl)phenyl]sulfide], for which, in test [1] (setting [4]), the IC50 stood at 11000 nM. In test [2], the “% inhibition @ 4 μM” value was found to be 82%.
Consider `Cc1ccccc1Sc1ccc(/C=C/C(=O)NCCN2CCOCC2)cc1C(F)(F)F` [Example 28, (2-Methylphenyl)[2-trifluoromethyl-4-(E-((2-(1-morpholinyl)ethylamino)carbonyl)ethenyl)phenyl]sulfide], for which, in test [1] (setting [4]), the IC50 came out at 370 nM. Also, in test [2], the “% inhibition @ 4 μM” value is recorded as 87%.
In turn, `Cc1ccccc1Sc1ccc(/C=C/C(=O)N2CCN(c3ccccc3)CC2)cc1C(F)(F)F` [Example 29, (2-Methylphenyl)[2-trifluoromethyl-4-(E-((4-phenylpiperazin-1-yl)carbonyl)ethenyl)phenyl]sulfide] returned an IC50 in test [1] (setting [3]) of 160 nM. Moreover, the inhibition at 4 µM in test [2] worked out at 84%.
For `Cc1ccccc1Sc1ccc(/C=C/C(=O)NC2CC2)cc1C(F)(F)F` [Example 31, (2-Methylphenyl)[2-trifluoromethyl-4-(E-((cyclopropylamino)carbonyl)ethenyl)phenyl]sulfide], the inhibition at 4 µM in test [2] is 92%.
On to `O=C(/C=C/c1ccc(Sc2ccc(Cl)cc2Cl)c([N+](=O)[O-])c1)NCCCN1CCCC1=O` [Example 33, (2,4-Dichlorophenyl)[2-nitro-4-(E-((3-(2-oxopyrrolidin-1-yl)propylamino)carbonyl)ethenyl)phenyl]sulfide], for which, in test [1] (setting [3]), inhibition was half-maximal at 300 nM (IC50). This counts as sub-micromolar.
For `CC(=O)N1CCN(C(=O)/C=C/c2ccc(Sc3ccc(C)cc3)c([N+](=O)[O-])c2)CC1` [Example 36, (4-Methylphenyl)[2-nitro-4-(E-((4-acetylpiperazin-1-yl)carbonyl)ethenyl)phenyl]sulfide], in test [1] (setting [3]), inhibition was half-maximal at 320 nM (IC50). Further, the inhibition at 4 µM in test [2] was found to be 90%.
As to `CC(C)(C)OC(=O)N1CCN(C(=O)/C=C/c2ccc(Sc3ccc(Cl)cc3Cl)c([N+](=O)[O-])c2)CC1` [Example 37, (2,4-Dichlorophenyl)[2-nitro-4-(E-((4-(tert-butoxycarbonyl)piperazin-1-yl)carbonyl)ethenyl)phenyl]sulfide], the IC50 in test [1] (setting [3]) stood at 140 nM. Further, the inhibition at 4 µM in test [2] turned out to be 91%.
As to `O=C(/C=C/c1ccc(Sc2ccccc2CN2CCOCC2)c(Cl)c1)N1CCOCC1` [Example 53, (2-(1-Morpholinylmethyl)phenyl)[2-chloro-4-(E-((1-morpholinyl)carbonyl)ethenyl)phenyl]sulfide], the IC50 in test [1] (setting [4]) was found to be 700 nM.
Compound `O=CN1CCN(Cc2ccccc2Sc2ccc(/C=C/C(=O)N3CCOCC3)cc2Cl)CC1` [Example 58, (2-(4-Formylpiperazin-1-ylmethyl)phenyl)[2-chloro-4-(E-((1-morpholinyl)carbonyl)ethenyl)phenyl]sulfide] showed an IC50 in test [1] (setting [4]) of 1600 nM.
Turning to `O=C(/C=C/c1ccc(Sc2ccc(Cl)cc2Cl)c(Br)c1)N1CCOCC1` [Example 64, (2,4-Dichlorophenyl)[2-bromo-4-(E-((1-morpholinyl)carbonyl)ethenyl)phenyl]sulfide], the “% inhibition @ 4 μM” value in test [2] amounted to 81%.

For the origin of these results see USRE39197E1, “Cell adhesion-inhibiting antiinflammatory and immune-suppressive compounds” (Abbott Laboratories, priority 1998, dated 2006).
